Source: patent US11596691B2, “Photoswitchable HDAC inhibitors” (The General Hospital Corporation, priority 2013, dated 2023)
Entries after “also recorded” stand apart in the source; their conditions may differ.

Experiments:
Absorbance spectra = format: physicochemical
Excerpt: Compounds were profiled physically to determine absorbance spectra, solubility and kinetics of photo-isomerization kinetics and thermal relaxation (where applicable). The compounds were then profiled biochemically to determine the HDAC inhibitory profile as a function of light exposure. Finally, selected compounds were profiled in cellular assays for the ability to induce hyperacetylation of histone proteins, which represents a biomarker readout for HDAC inhibition.
Compounds studied include those analogs with a push-pull azobenzene system (BG14, BG18, BG47, BG48 and BG49).
Physical characterization of the prototype inhibitors in PBS confirmed that all compounds strongly absorb light in the blue spectrum with maximum absorbance around 470 nm.

[1] = tested on: acetylation of histone H3 Lysine 9 (H3K9Ac) in MCF7 cells; experiment: H3K9Ac pharmacodynamic marker in MCF7 cells; format: cell-based; settings: for histone acetylation above background: in the absence of light; for acetylation of H3K9 relative to vehicle control: in the presence of light
Excerpt: BG14, BG47 and BG48 were profiled in cell culture to assess cellular activity using acetylation of histone H3 Lysine 9 (H3K9Ac) as a pharmacodynamic marker for HDAC inhibition. […] H3K9 acetylation levels directly correlated with light exposure.

HDAC1-3 = experiment: HDAC IC50 assay with and without 470 nm light exposure; format: biochemical; settings: for change of inhibitory activity against HDAC1-3 on light exposure: with vs without exposure (including 1 hr pre-exposure) to 470 nm light
Procedure: (§1) Compounds were added to white 96-well plates containing 40 μL of HDAC assay buffer (50 mM HEPES, 100 mM KCl, 0.05% BSA, 0.001% Tween-20 at pH 7.4) by pin transfer. To the assay plate was added 40 μL of a stock solution of full-length HDAC protein at three times the desired final concentration. After addition the plate was centrifuged to mix the solution while removing air bubbles. […] After which, reads were taken every 15 minutes to follow the fluorogenic release of 7-amino-4-methylcoumarin from the substrate resulting from deacetylase and trypsin enzymatic activity. In between reads the LED excitation device was reaffixed on top of the plate ensuring maximum cis-isomer population. In parallel to this, a second plate was prepared identically and measured for activity but this plate was not excited by our device but rather was covered to prevent any ambient light from shining on the plate. Replicate pairs of plates were performed.
The LED arrays were connected to a micro controller that was programmed to control individual LEDs, LED rows, or LED columns within the array. The controller allowed for modulation of LED intensity by controlling the on/off timing (PWM) or by directly controlling the supplied voltage. The temporal control was <10 ms. The LEDs and microcontroller were powered optionally by a power supply unit connected to a standard 110 V outlet or by a battery-pack, which allowed for use in a cell culture incubator. The LED array was used as lid to illuminate plates from the top and as a stage to illuminate the plates from the bottom, as required by the experimental setup.

MCF7 cells = experiment: L1000 gene expression profiling / GSEA in MCF7 cells; format: cell-based
Procedure: In order to gain more quantitative insights into the specific genes regulated by the presented inhibitors, and to provide further evidence that the BG inhibitors elicit biological responses similar to the closely related, but light-independent HDAC inhibitors a high-throughput gene expression analysis was performed. Expression profiling was performed in quadruplicate using the L1000™ platform (Genometry, Inc.). Specifically MCF7 cells were treated with various compounds and the transcriptional changes were measured as a function of compound concentration, light exposure intensity, and treatment duration relative to the reference HDAC inhibitors CI994 and “Merck60”.
To assess BG14's nature as an HDAC inhibitor beyond its ability to modulate HDAC and histone acetylation levels, Gene Set Enrichment Analysis (GSEA) was performed between BG14 (max concentration, max amount of light) and the known HDAC inhibitor CI-994 (the same concentration) (FIG. 15D). Very remarkably, the Normalized Enrichment Score (NES) of 3.25 indicates a very high degree of similarity between both expression profiles. The identified 177 On-Target Gene List, (landmark genes regulated by light-dependent BG14_trans only), as well as the 68 Off-Target list (landmark genes regulated in absence of light by BG14_cis) were compared to the list of genes regulated by CI-994. […]

HDAC enzyme = experiment: HDAC inhibitory activity as a function of light exposure time; format: biochemical; settings: continuous 470 nm light, measured in 15 min intervals
Procedure: The activation of the photoswitchable inhibitors depends on the light energy and the exposure time (as predicted by our model). […] Following pre-incubation of the HDAC enzyme and respective small molecule inhibitor, the enzyme substrate was added and the assay plate was continuously exposed to light (470 nm). Inhibitory activities were measured in 15 min intervals.

HDAC3 = target: T1, HDAC3 (Homo sapiens, UniProt O15379); experiment: Light-dependent HDAC3 biochemical assay (acetyl-lysine tripeptide based on acH4K12); settings: for inhibition of HDAC3 enzymatic activity: in the presence and absence of light
T1 construct: 40 μL of a stock solution of full-length HDAC protein at three times the desired final concentration
Procedure: as §1

HDAC1 = target: T2, HDAC1 (Homo sapiens, UniProt Q13547); experiment: Half-life experiment (residence time on HDAC1 after light exposure); format: biochemical; settings: 520 nM, 1 hour 470 nm light, then dark 4, 8 and 17 hours; estimated
T2 construct: 40 μL of a stock solution of full-length HDAC protein at three times the desired final concentration
Procedure: To directly compare the residence time versus isoform relaxation time BG47 and BG48 were incubated with HDAC1 in alternating columns of a white 96-well plate. Columns 1 and 2 were exposed to 470 nm light (22.9V/0.2 A; 0.1 A per column) from LEDs using our excitation device 17 hours before the assay for 1 hour, resulting in 16 hours of relaxation time before the assay. Columns 3 and 4 were exposed to light 9 hours before the assay for 1 hour providing an 8 hour relaxation period and columns 5 and 6 were exposed 5 hours before the assay providing a 4 hour relaxation time point while columns 11 and 12 were used as controls with no pre-exposure. After the completion of the pre-exposure and relaxation time points a stock solution of trypsin and substrate was added to the plate. The plate was centrifuged and read using a Tecan Safire II every 2 minutes while keeping the plate inside the instrument, eliminating exposure to ambient light.
Both compounds were incubated at 520 nM with HDAC1, exposed for 1 hour of […] light and stored in the dark for 4, 8 and 17 hours, respectively, followed by addition of enzyme substrate. The activity was monitored in reference to unexposed compound with continuous readout measured over 2 hours, estimating a residence half-live of 12-24 hours.

[2] = tested on: acetylation of histone H3 Lysine 9; experiment: Acetylation of histone H3 Lysine 9 in live cells (biomarker for HDAC inhibition); format: cell-based; settings: immunofluorescent staining, with/without light
Excerpt: The activity of the compounds in live cells was validated using acetylation of histone H3 Lysine 9 as a biomarker for HDAC inhibition.

[3] = Thermal relaxation (cis-to-trans) half-life measurement; settings: aqueous vs chloroform

T1 sequence (O15379 whole entry): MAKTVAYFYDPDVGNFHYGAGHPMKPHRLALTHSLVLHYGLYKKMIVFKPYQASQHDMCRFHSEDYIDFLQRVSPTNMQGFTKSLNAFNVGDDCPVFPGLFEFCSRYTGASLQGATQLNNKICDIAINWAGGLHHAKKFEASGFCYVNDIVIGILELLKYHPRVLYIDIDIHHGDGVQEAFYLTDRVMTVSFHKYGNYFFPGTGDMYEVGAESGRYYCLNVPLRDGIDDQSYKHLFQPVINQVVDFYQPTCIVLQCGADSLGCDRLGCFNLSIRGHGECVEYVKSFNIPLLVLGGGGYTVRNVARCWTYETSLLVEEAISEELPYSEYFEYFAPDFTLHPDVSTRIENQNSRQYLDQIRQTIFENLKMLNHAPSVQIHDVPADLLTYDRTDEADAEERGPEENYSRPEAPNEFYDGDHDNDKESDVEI
T1 sequence (Q9Y618 395-489 partner limits assumed): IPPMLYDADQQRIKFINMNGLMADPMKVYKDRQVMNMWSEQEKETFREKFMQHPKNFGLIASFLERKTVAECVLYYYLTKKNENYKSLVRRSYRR
T2 sequence (Q13547 whole entry): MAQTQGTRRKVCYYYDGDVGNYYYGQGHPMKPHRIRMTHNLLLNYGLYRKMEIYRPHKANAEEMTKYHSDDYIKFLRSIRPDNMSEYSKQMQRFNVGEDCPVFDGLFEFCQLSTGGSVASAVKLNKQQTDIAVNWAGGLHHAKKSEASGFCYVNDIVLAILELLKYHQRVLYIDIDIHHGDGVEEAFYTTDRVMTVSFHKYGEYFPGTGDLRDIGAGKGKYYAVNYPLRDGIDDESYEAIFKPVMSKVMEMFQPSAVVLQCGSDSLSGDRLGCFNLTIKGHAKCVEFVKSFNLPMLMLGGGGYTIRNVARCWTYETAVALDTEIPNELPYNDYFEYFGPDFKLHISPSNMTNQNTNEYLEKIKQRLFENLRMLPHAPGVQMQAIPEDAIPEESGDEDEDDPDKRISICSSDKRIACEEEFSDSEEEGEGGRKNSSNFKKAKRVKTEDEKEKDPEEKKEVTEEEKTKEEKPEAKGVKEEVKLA

SMILES: Nc1ccccc1NC(=O)c1ccc(N=Nc2ccccc2)cc1 [BG12, N-(2-aminophenyl)-4-(phenyldiazenyl)benzamide]
- absorbance range (Absorbance spectra): maximally absorbs in the UV range

SMILES: CN(C)c1ccc(N=Nc2ccc(C(=O)Nc3ccccc3N)cc2)cc1 [BG14, N-(2-aminophenyl)-4-((4-(dimethylamino)phenyl)diazenyl)benzamide]
- absorbance range (Absorbance spectra): absorbed in the blue range of the visible spectrum
- histone acetylation above background [1]: No significant histone acetylation above background
- acetylation of H3K9 relative to vehicle control [1]: strongly induced acetylation of H3K9
- increase of H3K9 acetylation compared among the inhibitors ([1]; with light): strongest increase of H3K9 acetylation
- change of inhibitory activity against HDAC1-3 on light exposure (HDAC1-3): Significantly increased activity
- transcript levels of L1000 landmark genes (MCF7 cells; MCF7, absence of light): did not show any significant changes in transcript levels
- expression levels of landmark genes (MCF7 cells; MCF7, increasing amounts of light): significant changes of expression levels of specific landmark genes
- activity change as a function of light exposure time (HDAC enzyme): increased activity with increased exposure time
- inhibition of HDAC3 enzymatic activity (HDAC3): potent light-dependent inhibitory activity; also recorded: also inhibits HDAC3
- dependence of HDAC3 inhibitory activity on light exposure (HDAC3; varying average light exposure): directly proportional to the average light exposure

SMILES: CN(C)c1ccc(N=Nc2ccc(C(=O)Nc3ccccc3O)cc2)cc1 [BG18, 4-((4-(dimethylamino)phenyl)diazenyl)-N-(2-hydroxyphenyl)benzamides]
- absorbance range (Absorbance spectra): absorbed in the blue range of the visible spectrum
- change of inhibitory activity against HDAC1-3 on light exposure (HDAC1-3): Significantly increased activity

SMILES: Nc1ccccc1NC(=O)c1ccc(N=Nc2ccc(C(=O)O)cc2)cc1 [BG19, 4-((4-((2-aminophenyl)carbamoyl)phenyl)diazenyl)benzoic Acid]
- absorbance range (Absorbance spectra): maximally absorbs in the UV range

SMILES: CN(C)c1ccc(N=Nc2ccc(C(=O)Nc3cc(-c4cccs4)ccc3N)cc2)cc1 [BG47, N-(2-amino-5-(thiophen-2-yl)phenyl)-4-((4-(dimethylamino)phenyl)diazenyl)benzamide]
- absorbance range (Absorbance spectra): absorbed in the blue range of the visible spectrum
- histone acetylation above background [1]: No significant histone acetylation above background
- acetylation of H3K9 relative to vehicle control [1]: strongly induced acetylation of H3K9
- HDAC isoform selectivity (HDAC1-3): HDAC1/2-selective
- change of inhibitory activity against HDAC1-3 on light exposure (HDAC1-3): Significantly increased activity
- residence time (HDAC1): 720 to 1440 min
- inhibition of HDAC3 enzymatic activity (HDAC3): did not inhibit HDAC3 in the presence and absence of light

SMILES: CN(C)c1ccc(N=Nc2ccc(C(=O)Nc3cc(-c4ccccc4)ccc3N)cc2)cc1 [BG48, N-(4-amino-[1,1′-biphenyl]-3-yl)-4-((4-(dimethylamino)phenyl)diazenyl)benzamide]
- absorbance range (Absorbance spectra): absorbed in the blue range of the visible spectrum
- histone acetylation above background [1]: No significant histone acetylation above background
- acetylation of H3K9 relative to vehicle control [1]: strongly induced acetylation of H3K9
- HDAC isoform selectivity (HDAC1-3): HDAC1/2-selective
- change of inhibitory activity against HDAC1-3 on light exposure (HDAC1-3): Significantly increased activity
- residence time (HDAC1): 720 to 1440 min
- inhibition of HDAC3 enzymatic activity (HDAC3): did not inhibit HDAC3 in the presence and absence of light

SMILES: CN(C)c1ccc(N=Nc2ccc(C(=O)Nc3ccccc3O)cc2)cc1 [BG49, 4-((4-(dimethylamino)phenyl)diazenyl)-N-(2-hydroxyphenyl)benzamides]
- hyperacetylation of H3K9 relative to DMSO control [2]: statistically significant induced hyperacetylation of H3K9 relative to DMSO control was observed only following light exposure
- inhibition of HDAC3 enzymatic activity (HDAC3): not targeted

SMILES: CC(=O)Nc1ccc(C(=O)Nc2ccccc2N)cc1 [CI-994, reference compound]
- change of inhibitory activity against HDAC1-3 on light exposure (HDAC1-3): no differential activity
- inhibition of HDAC3 enzymatic activity (HDAC3): no differential activity

SMILES: CN(C)c1ccc(N=Nc2ccc(C(=O)O)cc2)cc1 [DABCYL]
- thermal relaxation faster than previous measurements in chloroform [3]: approximately 120 ×

SMILES: Nc1ccccc1NC(=O)c1ccc(CNC(=O)OCc2cccnc2)cc1 [MS-275]
- activity change as a function of light exposure time (HDAC enzyme): Only compound BG14 shows increased activity with increased exposure time

SMILES: O=C(CCCCCCC(=O)Nc1ccccc1)NO [SAHA]
- activity change as a function of light exposure time (HDAC enzyme): Only compound BG14 shows increased activity with increased exposure time
